This assay has as its system B16F0 melanoma cells. Put plainly: Transfection activity in B16F0 melanoma cells. The format is cell-based. The settings on record: in the absence of helper lipid DOPE. The text has this: FIG. 2 Transfection activity of 1,3lb3 and other commercially available cationic lipids in B16F0 melanoma cells. Lif/d stands for Lipofectamine/DOPE. The data are the average of six wells two independent experiments (n=3×2).
FIG. 3 Transfection activity of 1,3lb3 (in the absence of DOPE) -a dipalmitoyl analogue with fluid lamellar phases at physiological pH and temperature-against B16F0 tumor melanoma cells. The plasmid DNA consisted of an EGFP reporter gene driven by the SV40 early promoter, cloned into a pUC21 vector (CloneTech Labs).
FIG. 8 Transfection activity as tested by X-gal of cationic lipids against B16F0 melanoma cells in the absence of serum. The (+/−) ratio is fixed to 2. A. lb1 B. lb2 C. lb3 D. lb4 E. lb5

Results on one compound are retold here after patent US20050095280A1, “Single-component pH-sensitive liposomes of reduced solid-to-liquid phase transition temperatures” (Michalakis Savva, priority 2003, published 2005).

Consider `CCCCCCCCCCCCCCCC(=O)NCC(CNC(=O)CCCCCCCCCCCCCCC)OC(=O)N(CCN(C)C)CCN(C)C` [13lb3, N,N′-dihexadecanoyl-1,3-diaminopropyl-2-carbamoyl-[bis-(2-dimethylaminoethane)]], for which the Transfection activity result is reported as “efficient transfection activity”.
